Data set [1] addresses T1, Thermotoga maritima mPPase (TmPPase) (Thermotoga maritima, UniProt Q9S5X0). Briefly: TmPPase inhibition assay (96-well). It counts as biochemical. The following applies: for IC50 [CI95%] / IC50: TmPPase inhibition, NA = IC50 not assigned. The text has this: We started from the previously identified 5‐arylisoxazole‐3‐carboxylate core present in 2–5 (Figure 1, highlighted in blue). Using KNIME,[30] we did a substructure search for commercial analogues in the ZINC12 database[31] […] Therefore, we manually picked compounds from a diverse collection provided by a single vendor (Ambinter, 174 matches for the substructure query). Out of the search results, we selected fifteen isoxazoles for testing in vitro. For all compounds in this manuscript, we tested activity using a 96‐well based assay that detects the inhibition of TmPPase.[22, 23, 24]
(§1) All commercially obtained compounds had purities >90 % as specified by the vendor. Synthesized compounds were >95 % pure as determined by LC–MS and characterized by HRMS. The inhibition assay was carried out with purified TmPPase as previously reported.[22, 23, 24] The best hits 17 a, 19 a, and 20 a, were validated using eight compound concentrations in triplicate. Further hit validation was done against the purified mPPase from P. falciparum (PfPPase‐VP1) expressed in baculovirus‐infected insect cells (expression, purification and further enzyme analysis will be described in more detail elsewhere). 4 μL of the purified PfPPase‐VP1 (2.0 mg/mL) was reactivated in 96 μL of reactivation buffer, i. e. 20 mM 2‐(N‐morpholino)ethanesulfonic acid (MES) pH 6.5, 3.5 % (v/v) glycerol, 2 mM dithiothreitol (DTT) and 12 mg/mL L‐α‐phosphatidylcholine from soybean. For each tube strip, 3 μL of the reactivated PfPPase‐VP1 was added into 12 μL of reaction buffer (200 mM Tris‐Cl pH 8.0, 8.0 mM MgCl2, 333 mM KCl, 67 mM NaCl) and 25 μL of inhibitor solution. The reaction mixtures were incubated at 50 °C for 5 min and the assay was started with the addition of 10 μL of 2 mM sodium pyrophosphate and further incubation at 50 °C for 45 min. The reaction termination and colour development were done as earlier described.[22, 23, 24]
6 IC50 plots from the TmPPase inhibition assay
The blue and black curves refer to compounds presented already in the main article and only shown in the Supporting Information, respectively. IC50, half maximal inhibitory concentration; CI95%, half maximal inhibitory concentration expressed as a 95% confidence interval (given in square brackets); […]
IC50 determinations were done using R 3.6.1[2] and the n-parameter logistic regression (nplr) package[3] version 0.1.7. In this package, the weighted nplr, given x (compound concentrations) and y values (activity) is calculated using Richard’s equation (eq 1) where B and T are the bottom and top asymptotes, respectively; b and xmid are the Hill slope and the x coordinate at inflexion point, respectively; and s is an asymmetric coefficient. The model parameters were simultaneously optimized using non-linear minimization, using a sum of squared errors.[4] The standard error of the model, defined as the squared error on the fitted values, is used to estimate a confidence interval at 95% on the predicted IC50 values.

Data set [2] in a line: Colloidal aggregation by nephelometry under TmPPase assay conditions. It counts as physicochemical. The procedure:
In order to rule out a cause of false positives, colloidal aggregation in the TmPPase model assay was evaluated for compounds 17 a, 19 a and 20 a at six concentrations (100 μM, 50 μM, 20 μM, 10 μM, 1 μM, and 0.1 μM) using the assay conditions (Figure S3).
3 Aggregation data for 17a, 19a and 20a (Figure S3)
Potential colloidal aggregation in the TmPPase model system was studied by nephelometric methods using Nepheloskan Ascent® (Labsystems, Finland). The original assay conditions were simulated, and the light scattering of potential aggregates in the mixture was studied at six concentrations (100 µM, 50 µM, 20 µM, 10 µM, 1 µM and 0.1 µM). Aggregation of the blank and compounds 17a, 19a and 20a was measured as quadruplicates from one independent experiment at three different voltages (300 V, 400 V and 500 V) at room temperature. […]
values at 10 µM, 1 µM and 0.1 µM were similar to those observed by the blank, indicating merely […]
Figure S3. Aggregation data for compounds 17a, 19a and 20a. The data, measured in relative nephelometric units (RNU), is shown as the mean ± SD and normalized to the blank.
(1 picture or pasted object on this page, not shown here)

The target of data set [3] is purified mPPase from P. falciparum (PfPPase-VP1) (Plasmodium falciparum, UniProt Q8IKR1). Briefly: PfPPase-VP1 inhibition assay. It counts as biochemical. As to conditions: IC50, purified PfPPase-VP1, 50 °C, three replicates. The procedure:
Further hit validation was done against the purified mPPase from P. falciparum (PfPPase‐VP1) expressed in baculovirus‐infected insect cells. […] Overall, these compounds have higher IC50 values for PfPPase‐VP1 than for TmPPase.
as §1

In data set [4] the target is T1, Thermotoga maritima mPPase (TmPPase). Also noted: method as in PMID 31131322, PMID 32292570. The following applies: previously reported inhibitors, read-out: IC50 [CI95%]; cited from earlier work.

Data on 23 molecules can be found in paper PMC8597055, “Exploration of Pyrazolo[1,5‐a]pyrimidines as Membrane‐Bound Pyrophosphatase Inhibitors” (Chemmedchem, 2021).

Several values for one entry are separate records, joined by “and”; a condition that tells them apart may be missing. Equal entries are not always repeated. Entries after “also recorded” stand apart in the source; their conditions may differ. Where two headings read alike, the source gives them in different places.

T1 sequence (Q9S5X0 whole entry): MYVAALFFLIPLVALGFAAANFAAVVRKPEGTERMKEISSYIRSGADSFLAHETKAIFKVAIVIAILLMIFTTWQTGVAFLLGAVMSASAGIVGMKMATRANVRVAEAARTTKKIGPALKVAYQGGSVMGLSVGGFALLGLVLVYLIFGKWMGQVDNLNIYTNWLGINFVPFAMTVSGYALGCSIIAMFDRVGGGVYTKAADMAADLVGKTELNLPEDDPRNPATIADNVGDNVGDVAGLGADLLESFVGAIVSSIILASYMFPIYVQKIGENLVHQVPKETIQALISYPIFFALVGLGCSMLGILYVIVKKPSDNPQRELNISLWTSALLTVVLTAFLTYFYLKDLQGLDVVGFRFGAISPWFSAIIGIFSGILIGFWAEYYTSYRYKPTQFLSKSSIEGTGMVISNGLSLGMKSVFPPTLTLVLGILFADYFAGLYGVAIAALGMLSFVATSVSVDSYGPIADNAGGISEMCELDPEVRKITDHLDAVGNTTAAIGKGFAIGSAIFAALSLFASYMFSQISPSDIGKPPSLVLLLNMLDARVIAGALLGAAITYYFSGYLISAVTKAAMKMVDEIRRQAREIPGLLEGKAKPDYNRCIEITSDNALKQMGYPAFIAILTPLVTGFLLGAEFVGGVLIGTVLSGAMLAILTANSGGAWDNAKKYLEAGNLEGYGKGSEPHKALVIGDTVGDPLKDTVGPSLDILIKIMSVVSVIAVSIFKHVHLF
purified mPPase from P. falciparum (PfPPase-VP1), sequence (Q8IKR1 entry or part of it): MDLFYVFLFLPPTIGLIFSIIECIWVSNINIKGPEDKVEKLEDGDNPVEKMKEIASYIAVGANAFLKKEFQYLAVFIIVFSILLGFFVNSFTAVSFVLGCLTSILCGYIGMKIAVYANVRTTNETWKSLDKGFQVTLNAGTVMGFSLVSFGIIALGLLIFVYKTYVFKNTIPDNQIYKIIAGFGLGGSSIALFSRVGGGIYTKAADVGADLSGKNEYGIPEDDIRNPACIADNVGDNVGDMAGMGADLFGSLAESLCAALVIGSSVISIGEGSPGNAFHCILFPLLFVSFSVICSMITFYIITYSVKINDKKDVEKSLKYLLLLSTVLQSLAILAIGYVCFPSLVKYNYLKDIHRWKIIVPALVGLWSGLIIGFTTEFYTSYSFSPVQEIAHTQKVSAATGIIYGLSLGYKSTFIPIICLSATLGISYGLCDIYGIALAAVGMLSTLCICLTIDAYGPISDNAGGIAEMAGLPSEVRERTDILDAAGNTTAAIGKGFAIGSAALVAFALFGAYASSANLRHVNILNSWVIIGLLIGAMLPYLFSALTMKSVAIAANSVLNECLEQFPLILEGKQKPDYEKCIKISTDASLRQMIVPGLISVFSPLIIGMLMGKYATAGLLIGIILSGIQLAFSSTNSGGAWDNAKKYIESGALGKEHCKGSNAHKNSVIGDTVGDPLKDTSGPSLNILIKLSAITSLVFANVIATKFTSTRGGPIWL

As to `CCOC(=O)c1cc(-c2cc(C)cc(C)c2)n2nc(Br)cc2n1` [15 a, Ethyl 2‐bromo‐7‐(3,5‐dimethylphenyl)pyrazolo[1,5‐a]pyrimidine‐5‐carboxylate], the “IC50 [CI95%]” value in data set [1] is recorded as “weak activity”. Besides, in data set [1] (read-out: IC50 [CI95%]), the IC50 – broadly, the concentration needed to halve the response being measured – was determined as 120 µM. `CCOC(=O)c1cc(C2CC2)n2nc(Br)cc2n1` [15 b, Ethyl 2‐bromo‐7‐cyclopropylpyrazolo[1,5‐a]pyrimidine‐5‐carboxylate]: the “IC50 [CI95%]” value in data set [1] is “only slightly effective”. In addition, the IC50 in data set [1] (read-out: IC50 [CI95%]) is 150 µM. In the case of `Cc1cc(C)cc(-c2cc(C(=O)O)nc3cc(Br)nn23)c1` [16 a, 2‐Bromo‐7‐(3,5‐dimethylphenyl)pyrazolo[1,5‐a]pyrimidine‐5‐carboxylic acid], the “IC50 [CI95%]” value in data set [1] is “inactive”. Take `O=C(O)c1cc(C2CC2)n2nc(Br)cc2n1` [16 b, 2‐Bromo‐7‐cyclopropylpyrazolo[1,5‐a]pyrimidine‐5‐carboxylic acid]: the entries for the “IC50 [CI95%]” value in data set [1] and in data set [1] (listed as 16b) were “completely unsuccessful” and “Inactive”, respectively. Consider `O=C(Oc1ccccc1Br)c1cc(C2CC2)n2nc(Br)cc2n1` [17 b, 2‐Bromophenyl 2‐bromo‐7‐cyclopropylpyrazolo[1,5‐a]pyrimidine‐5‐carboxylate], for which the “IC50 [CI95%]” value in data set [1] is reported as “completely unsuccessful”; in data set [1] (listed as 17b) it was “Inactive”.

For the molecule `C=Cc1cc2nc(C(=O)OCC)cc(-c3cc(C)cc(C)c3)n2n1` [18 a, Ethyl 7‐(3,5‐dimethylphenyl)‐2‐vinylpyrazolo[1,5‐a]pyrimidine‐5‐carboxylate], the IC50 in data set [1] (read-out: IC50 [CI95%]) was determined as 54 µM. Besides, in data set [1] (TmPPase, 18 a versus 15 a), the “fold improvement in the inhibition compared to 2-bromo analogue 15 a” value is reported as 2.2 fold. For the molecule `C=Cc1cc2nc(C(=O)OCC)cc(C3CC3)n2n1` [18 b, Ethyl 7‐cyclopropyl‐2‐vinylpyrazolo[1,5‐a]pyrimidine‐5‐carboxylate], the “IC50 [CI95%]” value in data set [1] is reported as “Inactive”. Take `C=Cc1cc2nc(C(=O)O)cc(-c3cc(C)cc(C)c3)n2n1` [19 a, 7‐(3,5‐Dimethylphenyl)‐2‐vinylpyrazolo[1,5‐a]pyrimidine‐5‐carboxylic acid]: the concentration for half-maximal inhibition (IC50) is 14 µM in data set [1] (IC50 [CI95%]) and 130 µM in data set [3]. In addition, the colloidal aggregation result in data set [2] (six concentrations 100–0.1 μM) is “no detectable aggregation”. `C=Cc1cc2nc(C(=O)O)cc(C3CC3)n2n1` [19 b, 7‐Cyclopropyl‐2‐vinylpyrazolo[1,5‐a]pyrimidine‐5‐carboxylic acid]: the “IC50 [CI95%]” value in data set [1] is reported as “Inactive”. As for `C=Cc1cc2nc(C(=O)Oc3ccccc3Br)cc(-c3cc(C)cc(C)c3)n2n1` [20 a, 2‐Bromophenyl 7‐(3,5‐dimethylphenyl)‐2‐vinylpyrazolo[1,5‐a]pyrimidine‐5‐carboxylate], the IC50 in data set [1] (IC50 [CI95%]) stood at 18 µM; in data set [3], 74 µM. Also, the “concentration of aggregate formation” value in data set [2] (TmPPase assay conditions, six concentrations 100–0.1 μM) was “above 20 μM”. In addition, the colloidal aggregation result in data set [2] (at 10 µM, 1 µM and 0.1 µM) is reported as “negligible/no detectable aggregation”; in data set [2] (at 100 µM, 50 µM and 20 µM), “aggregate formation”.

As for `C=Cc1cc2nc(C(=O)Oc3ccccc3Br)cc(C3CC3)n2n1` [20 b, 2‐Bromophenyl 7‐cyclopropyl‐2‐vinylpyrazolo[1,5‐a]pyrimidine‐5‐carboxylate], in data set [1], the “IC50 [CI95%]” value is “Inactive”. Consider `C=Cc1cc2nc(C(=O)NCCN)cc(-c3cc(C)cc(C)c3)n2n1` [21 a, N ‐(2‐Aminoethyl)‐7‐(3,5‐dimethylphenyl)‐2‐vinylpyrazolo[1,5‐a]pyrimidine‐5‐carboxamide], for which, in data set [1] (read-out: IC50 [CI95%]), the IC50 amounted to 72 µM. The “fold higher inhibition than cyclopropyl-substituted analogue 21 b” value in data set [1] (TmPPase, 21 a versus 21 b) was 3.6 fold. As to `C=Cc1cc2nc(C(=O)NCCN)cc(C3CC3)n2n1` [21 b, N ‐(2‐Aminoethyl)‐7‐cyclopropyl‐2‐vinylpyrazolo[1,5‐a]pyrimidine‐5‐carboxamide], the IC50 in data set [1] (read-out: IC50 [CI95%]) worked out at 260 µM. Take `Nc1nc2ccc(CNC(=O)c3cc4ccccc4[nH]3)cc2s1` [compound 1]: the IC50 in data set [4] was 2.7 µM. As for `Cc1cccc(-c2cc(C(=O)Oc3ccccc3Br)no2)c1` [compound 3], in data set [4], the IC50 was 6.1 µM.

As for `CC(C)(C)c1cccc(-c2cc(C(=O)Oc3ccccc3Br)no2)c1` [compound 4], the IC50 in data set [4] is 6.7 µM. For `CCOC(=O)c1cc(-c2ccc(OC)c(S(=O)(=O)Nc3ccc4c(c3)OCO4)c2)on1` [compound 5], in data set [4], the IC50 is 36 µM. With `CCOC(=O)c1cc(-c2ccc(OC)c(S(=O)(=O)N3CCCSc4ccccc43)c2)on1` [compound 6], in data set [1] (read-out: IC50 [CI95%]), the IC50 came to 5.4 µM. Consider `CCOC(=O)c1cc(-c2ccc(OC)c(S(=O)(=O)N3c4ccccc4CC3C)c2)on1` (stereo not drawn) [compound 7], for which, in data set [1] (read-out: IC50 [CI95%]), the IC50 came out at 56 µM. `CCOC(=O)c1cc(-c2ccc(OC)c(S(=O)(=O)N3CC(C)CSc4ccccc43)c2)on1` (stereo not drawn) [compound 8]: the “IC50 [CI95%]” value in data set [1] is on record as “Inactive; also recorded: not tolerated”. For the molecule `CCOC(=O)c1cc(-c2ccc(OC)c(S(=O)(=O)N3CCSc4ccccc43)c2)on1` [compound 9], the “IC50 [CI95%]” value in data set [1] was “Inactive; also recorded: loss of all TmPPase inhibitory activity”. The same measure, in the same setting: as for `CCOC(=O)c1cc(-c2ccc(OC)c(S(=O)(=O)N3CC(C)Sc4ccccc43)c2)on1` (stereo not drawn) [compound 10], the entry is “Inactive; also recorded: loss of all TmPPase inhibitory activity”. Consider `COc1ccccc1S(=O)(=O)Nc1ccc(N(C)C)cc1` [compound 11], for which the IC50 in data set [1] (read-out: IC50 [CI95%]) is < 25 µM and 14 µM. For the same molecule, the “ligand efficiency (LE)” value in data set [1] (computed from pIC50 and heavy atom count) was 0.23.
